# Experimental data: article PMC11683478, “Bioprospecting of culturable marine biofilm bacteria for novel antimicrobial peptides” (iMeta, 2024)
# Where no end group is shown, it is not given here.
# How the values were obtained:
# [1] = tested on: Salmonella bongori ATCC 43975; assay: Antibacterial screen at 200 μg/mL (cell density vs control); format: cell-based; settings: peptide 200 μg/mL, CAMHB, 5 × 10^5 CFU/mL, 37°C, 12 h, OD600; control (no AMP) = 1; three biological replicates
# Experimental: (§1) Eight bacterial strains were utilized in the antibacterial experiment. S. aureus ATCC 12600, B. subtilis ATCC 23857, E. coli ATCC 11775, and A. baumannii ATCC 19606 were purchased from Shanghai Beinuo Biology. M. luteus ATCC 4698 and S. bongori ATCC43975 were purchased from Shanghai Beisi Biotechnology. V. owensii ems001 and V. alginolyticus xv22 from the intestines of diseased shrimps were isolated in our laboratory. All strains were cultured in the cation‐adjusted Mueller‐Hinton broth (CAMHB) at 37°C to the logarithmic growth phase (OD600 = 0.5). Then, bacteria were gradient‐diluted using fresh CAMHB to a bacterial density of 5 × 10^5 CFU/mL. Antibacterial experiments were performed in a 96‐well plate with 200 μg/mL final peptide concentration. Four experimental groups were set up, including a blank control (200 μL CAMHB), a negative control (180 μL CAMHB plus 20 μL peptide), a positive control (180 μL bacterial culture plus 20 μL ultrapure water), and an experimental group (180 μL bacterial culture plus 20 μL peptide). Three biological replicates were conducted for each group, and OD600 values were measured after incubation at 37°C for 12 h. Every observed value was removed from the blank control group value. The value of the experimental group was then subtracted from the value of the negative control group therefore eradicating the effect of the peptide on the OD measurement. Student's t‐test allowed the estimation of a notable variation between the experimental and positive groups using a p‐value of 0.05 as the limit. […] The MIC of a peptide against a bacterium was determined as the minimum peptide concentration at which there was no visible bacterial growth.
# [2] = tested on: Vibrio alginolyticus xv22; assay: as above; format: cell-based; settings: peptide 200 μg/mL, CAMHB, 5 × 10^5 CFU/mL, 37°C, 12 h, OD600; control (no AMP) = 1; three biological replicates
# Experimental: as §1
# Vibrio owensii ems001 = assay: as above; format: cell-based; settings: peptide 200 μg/mL, CAMHB, 5 × 10^5 CFU/mL, 37°C, 12 h, OD600; control (no AMP) = 1; three biological replicates
# Experimental: as §1
# [3] = tested on: Escherichia coli ATCC 11775; assay: as above; format: cell-based; settings: peptide 200 μg/mL, CAMHB, 5 × 10^5 CFU/mL, 37°C, 12 h, OD600; control (no AMP) = 1; three biological replicates
# Experimental: as §1
# [4] = tested on: Acinetobacter baumannii ATCC 19606; assay: as above; format: cell-based; settings: peptide 200 μg/mL, CAMHB, 5 × 10^5 CFU/mL, 37°C, 12 h, OD600; control (no AMP) = 1; three biological replicates
# Experimental: as §1
# [5] = tested on: Staphylococcus aureus ATCC 12600; assay: as above; format: cell-based; settings: peptide 200 μg/mL, CAMHB, 5 × 10^5 CFU/mL, 37°C, 12 h, OD600; control (no AMP) = 1; three biological replicates
# Experimental: as §1
# [6] = tested on: Micrococcus luteus ATCC 4698; assay: as above; format: cell-based; settings: peptide 200 μg/mL, CAMHB, 5 × 10^5 CFU/mL, 37°C, 12 h, OD600; control (no AMP) = 1; three biological replicates
# Experimental: as §1
# [7] = tested on: Bacillus subtilis ATCC 23857; assay: as above; format: cell-based; settings: peptide 200 μg/mL, CAMHB, 5 × 10^5 CFU/mL, 37°C, 12 h, OD600; control (no AMP) = 1; three biological replicates
# Experimental: as §1
# sheep red blood cells = settings: red cells of sheep, 1 h
# Experimental: Freshly collected sheep blood was centrifuged at 3000 rpm for 10 min, and the supernatant was removed. The pellet was washed and resuspended with normal saline water to produce a 2% blood cell solution. Then, 400 μL of peptide solution was added to 100 μL of 2% blood cell solution to achieve final peptide concentrations of 8, 16, 32, 64, and 128 μg/mL. Normal saline water and Triton X‐100 normal saline solution (2%) were used as negative and positive controls, respectively. The samples were incubated in a water bath at 37°C for 1 h, followed by centrifugation at 3000 rpm for 10 min. Then, 200 μL of the supernatant was transferred to a 96‐well plate, and OD values were measured at a wavelength of 545 nm. The hemolysis rate of each sample was calculated using the following formula: Hemolysis ratio=OD545(experimental)−OD545(negative control)/OD545(positive control)−OD545(negative control)×100%.
sequence,measurement,setting,value
"MAWISTRIACCCSTRLRRRIRTCSTSFCR [Cand-218, chemically synthesized candidate AMP predicted from marine biofilm bacteria]","cell density relative to control, S. bongori ATCC 43975",[1],0.938
same,"cell density relative to control, V. alginolyticus xv22",[2],0.049
same,"cell density relative to control, V. owensii ems001",Vibrio owensii ems001,0.001
same,"cell density relative to control, E. coli ATCC 11775",[3],0.021
same,"cell density relative to control, A. baumannii ATCC 19606",[4],0.029
same,"cell density relative to control, S. aureus ATCC 12600",[5],0
same,"cell density relative to control, M. luteus ATCC 4698",[6],0.052
same,"cell density relative to control, B. subtilis ATCC 23857",[7],0.004
"MCALKWFCKSLIRALNKAT [Cand-68, chemically synthesized candidate AMP predicted from marine biofilm bacteria]","cell density relative to control, S. bongori ATCC 43975",[1],0.024
same,"cell density relative to control, V. alginolyticus xv22",[2],0.012
same,"cell density relative to control, V. owensii ems001",Vibrio owensii ems001,0
same,"cell density relative to control, E. coli ATCC 11775",[3],0
same,"cell density relative to control, A. baumannii ATCC 19606",[4],0
same,"cell density relative to control, S. aureus ATCC 12600",[5],0
same,"cell density relative to control, M. luteus ATCC 4698",[6],0.001
same,"cell density relative to control, B. subtilis ATCC 23857",[7],0
"MCCVGRGVSFLRTRKCFIKS [Cand-161, chemically synthesized candidate AMP predicted from marine biofilm bacteria]","cell density relative to control, S. bongori ATCC 43975",[1],0.12
same,"cell density relative to control, V. alginolyticus xv22",[2],0
same,"cell density relative to control, V. owensii ems001",Vibrio owensii ems001,0
same,"cell density relative to control, E. coli ATCC 11775",[3],0
same,"cell density relative to control, A. baumannii ATCC 19606",[4],0.543
same,"cell density relative to control, S. aureus ATCC 12600",[5],0.001
same,"cell density relative to control, M. luteus ATCC 4698",[6],0.788
same,"cell density relative to control, B. subtilis ATCC 23857",[7],0
"MCRFKCKVRTTITRPVCCWLIFM [Cand-168, chemically synthesized candidate AMP predicted from marine biofilm bacteria]","cell density relative to control, S. bongori ATCC 43975",[1],0.482
same,"cell density relative to control, V. alginolyticus xv22",[2],0.418
same,"cell density relative to control, V. owensii ems001",Vibrio owensii ems001,0
same,"cell density relative to control, E. coli ATCC 11775",[3],0.553
same,"cell density relative to control, A. baumannii ATCC 19606",[4],1
same,"cell density relative to control, S. aureus ATCC 12600",[5],1
same,"cell density relative to control, M. luteus ATCC 4698",[6],1
same,"cell density relative to control, B. subtilis ATCC 23857",[7],0
"MCRWWPDWWHHRWWHCRGCCRFCRG [Cand-111, chemically synthesized candidate AMP predicted from marine biofilm bacteria]","cell density relative to control, S. bongori ATCC 43975",[1],0.794
same,"cell density relative to control, V. alginolyticus xv22",[2],0.477
same,"cell density relative to control, V. owensii ems001",Vibrio owensii ems001,0.357
same,"cell density relative to control, E. coli ATCC 11775",[3],0.669
same,"cell density relative to control, A. baumannii ATCC 19606",[4],1
same,"cell density relative to control, S. aureus ATCC 12600",[5],0.202
same,"cell density relative to control, M. luteus ATCC 4698",[6],1
same,"cell density relative to control, B. subtilis ATCC 23857",[7],1
MLTWLKKLQPYLISMMR [Cand-44],Hemolysis ratio (%) at 8μg/mL,sheep red blood cells,3.540%
same,Hemolysis ratio (%) at 16μg/mL,sheep red blood cells,1.775%
same,Hemolysis ratio (%) at 32μg/mL,sheep red blood cells,3.660%
same,Hemolysis ratio (%) at 64μg/mL,sheep red blood cells,5.713%
same,Hemolysis ratio (%) at 128μg/mL,sheep red blood cells,19.067%
MRPKKWLKKPKPRPKKWPTK [Cand-210],Hemolysis ratio (%) at 8μg/mL,sheep red blood cells,0.520%
same,Hemolysis ratio (%) at 16μg/mL,sheep red blood cells,0.079%
same,Hemolysis ratio (%) at 32μg/mL,sheep red blood cells,0.689%
same,Hemolysis ratio (%) at 64μg/mL,sheep red blood cells,1.792%
MSPCLKGVIRSAVKSLHR [Cand-53],Hemolysis ratio (%) at 8μg/mL,sheep red blood cells,2.990%
same,Hemolysis ratio (%) at 16μg/mL,sheep red blood cells,2.497%
same,Hemolysis ratio (%) at 32μg/mL,sheep red blood cells,3.703%
same,Hemolysis ratio (%) at 64μg/mL,sheep red blood cells,3.585%
MSPIRAWRRLRSC [Cand-144],Hemolysis ratio (%) at 8μg/mL,sheep red blood cells,1.328%
same,Hemolysis ratio (%) at 16μg/mL,sheep red blood cells,1.615%
same,Hemolysis ratio (%) at 32μg/mL,sheep red blood cells,1.536%
same,Hemolysis ratio (%) at 64μg/mL,sheep red blood cells,3.230%
same,Hemolysis ratio (%) at 128μg/mL,sheep red blood cells,10.013%
MWIRLTKRLRKSRSNR [Cand-214],Hemolysis ratio (%) at 8μg/mL,sheep red blood cells,1.812%
same,Hemolysis ratio (%) at 16μg/mL,sheep red blood cells,2.604%
same,Hemolysis ratio (%) at 32μg/mL,sheep red blood cells,3.258%
same,Hemolysis ratio (%) at 64μg/mL,sheep red blood cells,3.738%
MWPLSKLWPSCFRKTT [Cand-5],Hemolysis ratio (%) at 8μg/mL,sheep red blood cells,2.350%
same,Hemolysis ratio (%) at 16μg/mL,sheep red blood cells,1.575%
same,Hemolysis ratio (%) at 32μg/mL,sheep red blood cells,0.874%
same,Hemolysis ratio (%) at 64μg/mL,sheep red blood cells,7.118%
